In patent US9969687B2, “Compounds useful as CCR9 modulators” (Norgine B.V., priority 2013, dated 2018) one finds Ki data, which are given here for 39 compounds.

The target of assay [1] is T1, CCR9 (Homo sapiens (Human), UniProt P51686). The experiment in a line: FLIPR calcium flux assay using hCCR9 over expressed cells (Chem1-hCCR9), TECK stimulation. The class given is cell-based. The note with it: Chem1-hCCR9 overexpressing cells. The method, then: Biological Activity: FLIPR Assay Using hCCR9 Over Expressed Cells
A calcium flux assay was used to determine the ability of the compounds to interfere with the binding between CCR9 and its chemokine ligand (TECK) in Chem1-hCCR9 overexpressing cells. hCCR9 overexpressing cells were seeded (25,000 cells/well) into black Poly-D-Lysine coated clear bottom 96-well plates (BD Biosciences, Cat #356640) and incubated overnight at 37° C./5% CO2 in a humidified incubator. Media was aspirated and cells washed twice with 100 μL assay buffer (1×HBSS, 20 mM HEPES) containing 2.5 mM Probenecid. A 0.3× Fluo-4 NW calcium dye was prepared in assay buffer containing 5 mM Probenecid and stored in the dark. Each well was loaded with 100 μL of 0.3× Fluo-4 NW calcium dye and incubated at 37° C./5% CO2 for 60 minutes and then at room temperature for 30 minutes. A half-log serially diluted concentration response curve was prepared at a 3× final assay concentration for each compound (10 μM-0.1 nM final assay concentration) and 50 μL of the compound then transferred to the cells (150 μL final volume) for 60 minutes prior to stimulation (30 minutes at 37° C./5% CO2 and 30 minutes at room temperature). TECK was diluted to 4× its EC80 in assay buffer (containing 0.1% [w/v] bovine serum albumin [BSA]) and 50 μL dispensed through the fluorometric imaging plate reader (FLIPR) instrument to stimulate the cells (200 μL final volume). The increase in intracellular calcium levels was measured with the FLIPR instrument. The potency of the compound as a CCR9 antagonist was calculated as an IC50 using GraphPad Prism software (variable slope four parameter). The Ki of the compound was determined from the IC50 values using the following equation. IC50/1+(Agonist (TECK) conc. used in assay/EC50 of agonist (TECK) generated on day of experiment) Ki calculation: […]

For assay [2], the target named is T1, CCR9. Kind of assay: FLIPR calcium flux assay using MOLT4 cells, TECK stimulation. It is filed as cell-based. The conditions noted are these: MOLT4 cells (human T-cell line). On the procedure: Biological Activity: FLIPR Assay Using MOLT4 Cells
A calcium flux assay was used to determine the ability of the compounds to interfere with the binding between CCR9 and its chemokine ligand (TECK) in MOLT4 cells (a human T-cell line). MOLT4 cells were seeded (100,000 cells/well) in corning cell culture plates (Cat #3603) in assay buffer (1×HBSS, 20 mM HEPES) containing 2.5 mM Probenecid. The plate was centrifuged at 1200 rpm for 3 minutes and incubated at 37° C./5% CO2 for 2 hours. A 0.3× Fluo-4 NW calcium dye was prepared in assay buffer containing 5 mM Probenecid and stored in the dark. Each well was loaded with 25 μl of 0.3× Fluo-4 NW calcium dye and incubated at 37° C./5% CO2 for 60 minutes and then at room temperature for 30 minutes. A half-log serially diluted concentration response curve was prepared at a 4× concentration for each (10 μM-0.1 nM final assay concentration) and 25 μL of the compound then transferred to the cells (100 μL final volume) for 60 minutes prior to stimulation (30 minutes at 37° C./5% CO2 and 30 minutes at room temperature). […] The increased in intracellular calcium levels was measured with the FLIPR instrument. The potency of the compound as CCR9 antagonist was calculated as an IC50 using GraphPad Prism software (variable slope four parameter). The Ki of the compound was determined from the IC50 values using the following equation. IC50/1+(Agonist (TECK) conc. used in assay/EC50 of agonist (TECK) generated on day of experiment) Ki calculation: […]

Structures are written as SMILES.

T1 sequence (P51686 whole entry): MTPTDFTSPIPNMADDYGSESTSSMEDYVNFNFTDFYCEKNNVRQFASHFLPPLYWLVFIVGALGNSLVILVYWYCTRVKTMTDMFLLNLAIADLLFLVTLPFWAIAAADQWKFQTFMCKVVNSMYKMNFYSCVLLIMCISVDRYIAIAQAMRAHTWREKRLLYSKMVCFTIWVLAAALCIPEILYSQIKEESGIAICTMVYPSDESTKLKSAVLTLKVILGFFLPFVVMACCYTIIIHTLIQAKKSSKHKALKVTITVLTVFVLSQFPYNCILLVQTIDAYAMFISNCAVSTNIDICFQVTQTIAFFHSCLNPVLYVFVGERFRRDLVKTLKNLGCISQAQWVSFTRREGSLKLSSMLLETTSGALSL

Take `CC(C)(C)c1ccc(S(=O)(=O)Nc2ccc(Cl)c3c2C(=O)N(Cc2cccc(C#N)c2)C3=O)cc1` [Compound 126, 4-(tert-butyl)-N-(7-chloro-2-(3-cyanobenzyl)-1,3-dioxoisoindolin-4-yl)benzenesulfonamide]: the Ki was found to be 343 nM on CCR9 [1] and 158 nM on CCR9 [2].

As for `COc1ccc(N2C(=O)c3c(Cl)ccc(NS(=O)(=O)c4ccc(C(C)(C)C)cc4)c3C2=O)c(C)[n+]1[O-]` [Compound 243], the Ki at CCR9 [1] turned out to be 115 nM; on CCR9 [2] it was 34 nM.

For `CC(C)(C)c1ccc(S(=O)(=O)Nc2ccc(Cl)c3c2C(=O)N(c2cccc(C#N)c2)C3=O)cc1` [Compound 120, 4-(tert-butyl)-N-(7-chloro-2-(3-cyanophenyl)-1,3-dioxoisoindolin-4-yl)benzenesulfonamide], the results for the Ki on CCR9 [1] and on CCR9 [2] were 90 nM and 74 nM, respectively.

In the case of `Cc1ccc(CN2C(=O)c3c(Cl)ccc(NS(=O)(=O)c4ccc(C(C)(C)C)cc4)c3C2=O)[n+]([O-])c1` [Compound 259], the Ki was found to be 45 nM at CCR9 [1] and 13 nM on CCR9 [2].

As for `COc1cncc(CN2C(=O)c3c(Cl)ccc(NS(=O)(=O)c4ccc(C(C)(C)C)cc4)c3C2=O)c1` [Compound 212], the inhibitory constant (Ki) on CCR9 [1] is 60 nM; at CCR9 [2], 59 nM.

As for `CC(C)(C)c1ccc(S(=O)(=O)Nc2ccc(Cl)c3c2C(=O)N(Cc2cncc(C#N)c2)C3=O)cc1` [Compound 195], the Ki on CCR9 [1] amounted to 42 nM; at CCR9 [2], 31 nM.

`CC(C)(C)c1ccc(S(=O)(=O)Nc2ccc(Cl)c3c2C(=O)N(c2cnccn2)C3=O)cc1` [Compound 184]: the inhibitory constant (Ki) came out at 24 nM on CCR9 [1] and 16 nM at CCR9 [2].

On to `Cc1cc(C)c(CN2C(=O)c3c(Cl)ccc(NS(=O)(=O)c4ccc(C(C)(C)C)cc4)c3C2=O)c(=O)[nH]1` [Compound 283], for which the Ki is 20 nM on CCR9 [1] and 15 nM at CCR9 [2].

As to `N#Cc1cccc(CN2C(=O)c3c(Cl)ccc(NS(=O)(=O)c4ccc(F)c(C(F)(F)F)c4)c3C2=O)c1` [Compound 133], the Ki came to 158 nM on CCR9 [1] and 220 nM on CCR9 [2].

With `CC(C)(C)c1ccc(S(=O)(=O)Nc2ccc(Cl)c3c2C(=O)N(c2cccnc2F)C3=O)cc1` [Compound 218], the Ki was 26 nM at CCR9 [1] and 7 nM at CCR9 [2].

Consider `Cn1cc(N2C(=O)c3c(Cl)ccc(NS(=O)(=O)c4ccc(C(C)(C)C)cc4)c3C2=O)ccc1=O` [Compound 282], for which the Ki came out at 23 nM on CCR9 [1] and 9 nM on CCR9 [2].

As to `Cc1cc[n+]([O-])cc1N1C(=O)c2c(Cl)ccc(NS(=O)(=O)c3ccc(C(C)(C)C)cc3)c2C1=O` [Compound 188], the Ki was found to be 89 nM at CCR9 [1] and 15 nM on CCR9 [2].

As for `Cc1ccc(N2C(=O)c3c(Cl)ccc(NS(=O)(=O)c4ccc(C(C)(C)C)cc4)c3C2=O)c(C)[n+]1[O-]` [Compound 227], the Ki was found to be 32 nM on CCR9 [1] and 14 nM on CCR9 [2].

Turning to `Cc1cc[n+]([O-])cc1CN1C(=O)c2c(Cl)ccc(NS(=O)(=O)c3ccc(C(C)(C)C)cc3)c2C1=O` [Compound 213], the figures for the Ki at CCR9 [1] and on CCR9 [2] were 23 nM and 12 nM, respectively.

As to `CC(C)(C)c1ccc(S(=O)(=O)Nc2ccc(Cl)c3c2C(=O)N(c2sccc2C#N)C3=O)cc1` [Compound 179], the Ki on CCR9 [1] amounted to 57 nM; on CCR9 [2], 16 nM.

In the case of `Cc1ccc(N2C(=O)c3c(Cl)ccc(NS(=O)(=O)c4ccc(C(C)(C)C)cc4)c3C2=O)c(C)n1` [Compound 224], the Ki was found to be 6 nM on CCR9 [1] and 5 nM on CCR9 [2].

On to `Cc1ncccc1N1C(=O)c2c(Cl)ccc(NS(=O)(=O)c3ccc(C(C)(C)C)cc3)c2C1=O` [Compound 175, 4-(tert-butyl)-N-(7-chloro-2-(2-methylpyridin-3-yl)-1,3-dioxoisoindolin-4-yl)benzenesulfonamide], for which the Ki at CCR9 [1] came out at 12 nM; at CCR9 [2] it was 3 nM.

Take `Cc1ccc(N2C(=O)c3c(Cl)ccc(NS(=O)(=O)c4ccc(C(C)(C)C)cc4)c3C2=O)nn1` [Compound 236]: the Ki is 32 nM at CCR9 [1] and 51 nM on CCR9 [2].

Consider `Cc1cnc(C)c(N2C(=O)c3c(Cl)ccc(NS(=O)(=O)c4ccc(C(C)(C)C)cc4)c3C2=O)c1` [Compound 263], for which the Ki on CCR9 [1] was 25 nM; at CCR9 [2], 11 nM.

`CC(C)(C)c1ccc(S(=O)(=O)Nc2ccc(Cl)c3c2C(=O)N(c2ccsc2C(=O)O)C3=O)cc1` [Compound 288]: the Ki on CCR9 [1] was 23 nM; at CCR9 [2] it was 3 nM.

`Cc1cnccc1N1C(=O)c2c(Cl)ccc(NS(=O)(=O)c3ccc(C(C)(C)C)cc3)c2C1=O` [Compound 244]: the Ki at CCR9 [1] was 3 nM; at CCR9 [2] it was 6 nM.

For `Cn1nccc1N1C(=O)c2c(Cl)ccc(NS(=O)(=O)c3ccc(C(C)(C)C)cc3)c2C1=O` [Compound 144], the Ki was 23 nM on CCR9 [1] and 3 nM at CCR9 [2].

Regarding `Cc1ccnc(N2C(=O)c3c(Cl)ccc(NS(=O)(=O)c4ccc(C(C)(C)C)cc4)c3C2=O)c1` [Compound 225], the figures for the inhibition constant (Ki) at CCR9 [1] and at CCR9 [2] were 51 nM and 54 nM, respectively.

For the compound `CC(C)(C)c1ccc(S(=O)(=O)Nc2ccc(Cl)c3c2C(=O)N(Cc2ccc[nH]c2=O)C3=O)cc1` [Compound 284], the inhibition constant (Ki) on CCR9 [1] turned out to be 12 nM; on CCR9 [2], 7 nM.

In the case of `N#Cc1cccc(N2C(=O)c3c(Cl)ccc(NS(=O)(=O)c4ccc(C(F)(F)F)cc4)c3C2=O)c1` [Compound 121], the values for the Ki on CCR9 [1] and at CCR9 [2] were 337 nM and 192 nM, respectively.

Take `COc1cncc(N2C(=O)c3c(C#N)ccc(NS(=O)(=O)c4ccc(C(C)(C)C)cc4)c3C2=O)c1` [Compound 278]: the Ki was determined as 17 nM at CCR9 [1] and 10 nM at CCR9 [2].

Consider `O=C1c2c(Cl)ccc(NS(=O)(=O)c3ccc(C(F)(F)F)cc3)c2C(=O)N1Cc1cccnc1` [Compound 66], for which the Ki came to 269 nM on CCR9 [1] and 115 nM at CCR9 [2].

For the compound `COc1c[n+]([O-])cc(N2C(=O)c3c(Cl)ccc(NS(=O)(=O)c4ccc(C(C)(C)C)cc4)c3C2=O)c1C` [Compound 245], the Ki on CCR9 [1] was determined as 54 nM; at CCR9 [2], 47 nM.

As for `COC(=O)c1cc(N2C(=O)c3c(Cl)ccc(NS(=O)(=O)c4ccc(C(C)(C)C)cc4)c3C2=O)n(C)n1` [Compound 291], the Ki at CCR9 [1] was 15 nM; on CCR9 [2], 5 nM.

`CC(C)(C)c1ccc(S(=O)(=O)Nc2ccc(Cl)c3c2C(=O)N(Cc2ccncc2)C3=O)cc1` [Compound 201]: the inhibition constant (Ki) on CCR9 [1] worked out at 17 nM; at CCR9 [2] it was 8 nM.

As for `CC(C)(C)c1ccc(S(=O)(=O)Nc2ccc(Cl)c3c2C(=O)N(c2ccccn2)C3=O)cc1` [Compound 222], the Ki on CCR9 [1] was 12 nM; on CCR9 [2], 6 nM.

Take `Cc1c[n+]([O-])ccc1N1C(=O)c2c(Cl)ccc(NS(=O)(=O)c3ccc(C(C)(C)C)cc3)c2C1=O` [Compound 272]: the Ki was 29 nM at CCR9 [1] and 9 nM on CCR9 [2].

For the compound `O=C1c2cccc(NS(=O)(=O)c3ccc(C(F)(F)F)cc3)c2C(=O)N1c1cccnc1` [Compound 6], on CCR9 [1], the Ki came out at 5630 nM.

Consider `COc1cnc(N2C(=O)c3c(Cl)ccc(NS(=O)(=O)c4ccc(C(C)(C)C)cc4)c3C2=O)cc1C` [Compound 268], for which, at CCR9 [2], the Ki was 54 nM.

`CC(C)(C)c1ccc(S(=O)(=O)Nc2cccc3c2C(=O)N(c2ccc(C#N)cc2)C3=O)cc1` [Compound 36]: the Ki at CCR9 [2] amounted to 1210 nM.

Regarding `N#Cc1cccc(N2C(=O)c3cccc(NS(=O)(=O)c4ccc(Cl)c(C(F)(F)F)c4)c3C2=O)c1` [Compound 41], at CCR9 [2], the Ki was 167 nM.

As to `COc1cc(CN2C(=O)c3c(Cl)ccc(NS(=O)(=O)c4ccc(C(C)(C)C)cc4)c3C2=O)ccn1` [Compound 273], at CCR9 [2], the Ki turned out to be 108 nM.

`COc1cncc(N2C(=O)c3c(Cl)ccc(NS(=O)(=O)c4ccc(OC(F)(F)F)cc4)c3C2=O)c1` [Compound 94]: the Ki at CCR9 [2] came to 244 nM.

For the compound `N#Cc1cccc(CN2C(=O)c3c(Cl)ccc(NS(=O)(=O)c4ccc(Cl)c(C(F)(F)F)c4)c3C2=O)c1` [Compound 132], on CCR9 [2], the Ki came out at 252 nM.
